Each block holds one substance with its values, some of them ahead of it.
How the values were obtained:
IGF-1R-Fc = assay: Surface plasmon resonance analysis of the IGF-1R-Fc mutant library (46 mutants); type: binding, human; settings: for C06 binding: M13-C06 Fab; for C06 binding / C03 binding / G11 binding / P1E2 binding / αIR3 binding: KD relative to WT hIGF-1R-Fc; for C03 binding: M14-C03 Fab; for G11 binding: M14-G11 Fab; for P1E2 binding: P1E2 antibody; for αIR3 binding: αIR3 antibody
Procedure: Surface plasmon resonance (SPR) experiments were performed on a Biacore 3000 instrument set to 25° C. Both mIGF-1R-Fc and hIGF-1R-Fc bind with high apparent affinity to research grade CM5 sensorchip surfaces containing immobilized M13-C06, M14-C03, and M14-G11. The antibody sensorchip surfaces were prepared by injecting each antibody (diluted 100 μg/mL in 10 mM Acetate, pH 4.0) over EDC/NHS-activated sensorchip surfaces according to the standard protocol of the manufacturer. The ability of mIGF-1R-Fc to bind the antibody surfaces was the result of high apparent avidity of the protein. Both hIGF-1R-Fc and mIGF-1R-Fc proteins oligomerize due to the incorporation of two separate homodimeric regions (IGF-1R and IgG1-Fc). To distinguish between actual high affinity antibody binding to hIGF-1R-Fc and low affinity antibody binding to mIGF-1R-Fc, the receptor-Fc fusions were captured on the M13-C06 and M14-G11 sensorchip surfaces followed by an additional injection of antibody (αIR3 and P1E2) or antibody Fab (M13-C06, M14-C03, and M14-G11). […] After, completion of the receptor-Fc loading step, flow rates were elevated to 5 μl/min. Solutions containing M13-C06 Fab or αIR3 antibody at 10 nM, 3 nM, or 1 nM or M14-C03 Fab, M14-G11 Fab, or P1E2 antibody at 30 nM, 10 nM, or 3 nM were injected (50 μL) subsequent to the loading of each receptor-Fc construct. Dissociation was measured for 7 minutes after the antibody injections were complete. Finally, the flow rate was elevated to 30 μL/min and the chip surfaces were regenerated by 2×10 μL injections of 0.1 M glycine, pH 2.
M13-C06, M14-C03, M14-G11, P1E2 and αIR3 were assayed for their ability to interact with each of the mutant IGF-1R-Fc fusion constructs using surface plasmon resonance (Biacore). To remove the uncertain concentrations of the IGF-1R-Fc fusion constructs as a variable in the assay, each mutant construct was captured on a research grade CM5 chip containing ˜10,000 RU immobilized […], M14-C03, and M14-G11 antibody. To enhance our ability to visualize attenuations in antibody binding to the captured mutant IGF-1R constructs, we utilized enzymatically derived M13-C06, M14-C03, and M14-G11 antigen binding fragments (Fabs).

IGF-1R = assay: Biacore analysis of the IGF-1R-Fc mutant library: M13-C06 Fab binding to receptor-Fc captured on M13-C06 chip; set-up: species or system human; settings: M13-C06 Fab binding to mutant hIGF-1R-Fc captured on M13-C06 chip
Description: Both mIGF-1R-Fc and hIGF-1R-Fc bind with high apparent affinity to the M13-C06, M14-C03, and M14-G11 sensorchip surfaces described above due to their highly multivalent nature induced by the incorporation of two separate homodimeric regions (IGF-1R and IgG1-Fc). To distinguish between the actual high affinity binding hIGF-1R-Fc to M13-C06 and the low affinity binding of mIGF-1R-Fc to M13-C06, the receptor-Fc fusions were captured on the M13-C06 sensorchip surface followed by an additional soluble M13-C06 Fab binding event. […] After, completion of the receptor-Fc loading step, flow rates were elevated to 5 μl/min. 10 nM, […], and 1 nM M13-C06 Fab concentrations were injected (50 μL) subsequent to the loading of each receptor-Fc construct. At the end of each sensorgram, the flow rate was elevated to 30 μl/min and the chip surface was regenerated by 2×10 μL injections of 0.1 M glycine, pH 2.

Substance: SD101: hIGF-1R-Fc mutant S427L
- C06 binding (IGF-1R-Fc): NE (No effect (NE): measured KD within 2.5-fold of WT hIGF-1R-Fc)
- C03 binding (IGF-1R-Fc): NE (No effect (NE): measured KD within 2.5-fold of WT hIGF-1R-Fc)

Substance: SD207: hIGF-1R-Fc mutant G265Y
- G11 binding (IGF-1R-Fc): W (Weak (W): measured KD between 2.5-10-fold higher than WT)
- P1E2 binding (IGF-1R-Fc): S (Strong (S): binding to antibody was ablated by mutation)
- αIR3 binding (IGF-1R-Fc): S (Strong (S): binding to antibody was ablated by mutation)

- Biacore Relative RUmax (IGF-1R): 2.0
Substance: SD016: hIGF-1R-Fc mutant D531Q_V532N
- C06 binding (IGF-1R-Fc): NE (No effect (NE): measured KD within 2.5-fold of WT hIGF-1R-Fc)
- C03 binding (IGF-1R-Fc): NE (No effect (NE): measured KD within 2.5-fold of WT hIGF-1R-Fc)
- G11 binding (IGF-1R-Fc): NE (No effect (NE): measured KD within 2.5-fold of WT hIGF-1R-Fc)

Substance: SD110: hIGF-1R-Fc mutant E533H
- C06 binding (IGF-1R-Fc): W (Weak (W): measured KD between 2.5-10-fold higher than WT)
- C03 binding (IGF-1R-Fc): S (Strong (S): binding to antibody was ablated by mutation)

- Biacore Relative RUmax (IGF-1R): 1.7
Substance: SD006: hIGF-1R-Fc mutant A227K
- C06 binding (IGF-1R-Fc): NE (No effect (NE): measured KD within 2.5-fold of WT hIGF-1R-Fc)
- C03 binding (IGF-1R-Fc): NE (No effect (NE): measured KD within 2.5-fold of WT hIGF-1R-Fc)
- G11 binding (IGF-1R-Fc): NE (No effect (NE): measured KD within 2.5-fold of WT hIGF-1R-Fc)
- P1E2 binding (IGF-1R-Fc): NE (No effect (NE): measured KD within 2.5-fold of WT hIGF-1R-Fc)
- αIR3 binding (IGF-1R-Fc): NE (No effect (NE): measured KD within 2.5-fold of WT hIGF-1R-Fc)

- Biacore Relative RUmax (IGF-1R): 1.3
Substance: SD007: hIGF-1R-Fc mutant N237G
- C06 binding (IGF-1R-Fc): NE (No effect (NE): measured KD within 2.5-fold of WT hIGF-1R-Fc)
- C03 binding (IGF-1R-Fc): NE (No effect (NE): measured KD within 2.5-fold of WT hIGF-1R-Fc)
- G11 binding (IGF-1R-Fc): NE (No effect (NE): measured KD within 2.5-fold of WT hIGF-1R-Fc)
- P1E2 binding (IGF-1R-Fc): NE (No effect (NE): measured KD within 2.5-fold of WT hIGF-1R-Fc)
- αIR3 binding (IGF-1R-Fc): NE (No effect (NE): measured KD within 2.5-fold of WT hIGF-1R-Fc)

Substance: SD210: hIGF-1R-Fc mutant T308E
- G11 binding (IGF-1R-Fc): NE (No effect (NE): measured KD within 2.5-fold of WT hIGF-1R-Fc)
- P1E2 binding (IGF-1R-Fc): NE (No effect (NE): measured KD within 2.5-fold of WT hIGF-1R-Fc)
- αIR3 binding (IGF-1R-Fc): W (Weak (W): measured KD between 2.5-10-fold higher than WT)

Substance: SD203: hIGF-1R-Fc mutant N254A
- G11 binding (IGF-1R-Fc): M (Medium (M): measured KD between 10-100-fold higher than WT)
- P1E2 binding (IGF-1R-Fc): S (Strong (S): binding to antibody was ablated by mutation)
- αIR3 binding (IGF-1R-Fc): M (Medium (M): measured KD between 10-100-fold higher than WT)

Substance: SD102: hIGF-1R-Fc mutant E459A S460A
- C06 binding (IGF-1R-Fc): S (Strong (S): binding to antibody was ablated by mutation)
- C03 binding (IGF-1R-Fc): S (Strong (S): binding to antibody was ablated by mutation)

Substance: SD206: hIGF-1R-Fc mutant S263R
- G11 binding (IGF-1R-Fc): W (Weak (W): measured KD between 2.5-10-fold higher than WT)
- P1E2 binding (IGF-1R-Fc): NE (No effect (NE): measured KD within 2.5-fold of WT hIGF-1R-Fc)
- αIR3 binding (IGF-1R-Fc): W (Weak (W): measured KD between 2.5-10-fold higher than WT)

Substance: SD109: hIGF-1R-Fc mutant Y482A R483W
- C06 binding (IGF-1R-Fc): S (Strong (S): binding to antibody was ablated by mutation)
- C03 binding (IGF-1R-Fc): S (Strong (S): binding to antibody was ablated by mutation)

Substance: SD208: hIGF-1R-Fc mutant V301Y
- G11 binding (IGF-1R-Fc): NE (No effect (NE): measured KD within 2.5-fold of WT hIGF-1R-Fc)
- P1E2 binding (IGF-1R-Fc): NE (No effect (NE): measured KD within 2.5-fold of WT hIGF-1R-Fc)
- αIR3 binding (IGF-1R-Fc): W (Weak (W): measured KD between 2.5-10-fold higher than WT)

Substance: SD104: hIGF-1R-Fc mutant H464A
- C06 binding (IGF-1R-Fc): S (Strong (S): binding to antibody was ablated by mutation)
- C03 binding (IGF-1R-Fc): S (Strong (S): binding to antibody was ablated by mutation)

Substance: SD111: hIGF-1R-Fc mutant I564T R565A
- C06 binding (IGF-1R-Fc): W (Weak (W): measured KD between 2.5-10-fold higher than WT)
- C03 binding (IGF-1R-Fc): W (Weak (W): measured KD between 2.5-10-fold higher than WT)

Substance: SD205: hIGF-1R-Fc mutant E259K S260N
- G11 binding (IGF-1R-Fc): W (Weak (W): measured KD between 2.5-10-fold higher than WT)
- P1E2 binding (IGF-1R-Fc): NE (No effect (NE): measured KD within 2.5-fold of WT hIGF-1R-Fc)
- αIR3 binding (IGF-1R-Fc): NE (No effect (NE): measured KD within 2.5-fold of WT hIGF-1R-Fc)

Substance: SD113: hIGF-1R-Fc mutant E570A I571T
- C06 binding (IGF-1R-Fc): S (Strong (S): binding to antibody was ablated by mutation)
- C03 binding (IGF-1R-Fc): S (Strong (S): binding to antibody was ablated by mutation)

Substance: SD106: hIGF-1R-Fc mutant T468R
- C06 binding (IGF-1R-Fc): NE (No effect (NE): measured KD within 2.5-fold of WT hIGF-1R-Fc)
- C03 binding (IGF-1R-Fc): NE (No effect (NE): measured KD within 2.5-fold of WT hIGF-1R-Fc)

Substance: SD212: hIGF-1R-Fc mutant L379R
- G11 binding (IGF-1R-Fc): NE (No effect (NE): measured KD within 2.5-fold of WT hIGF-1R-Fc)
- P1E2 binding (IGF-1R-Fc): NE (No effect (NE): measured KD within 2.5-fold of WT hIGF-1R-Fc)
- αIR3 binding (IGF-1R-Fc): W (Weak (W): measured KD between 2.5-10-fold higher than WT)

Substance: SD204: hIGF-1R-Fc mutant S257K
- G11 binding (IGF-1R-Fc): W (Weak (W): measured KD between 2.5-10-fold higher than WT)
- P1E2 binding (IGF-1R-Fc): M (Medium (M): measured KD between 10-100-fold higher than WT)
- αIR3 binding (IGF-1R-Fc): NE (No effect (NE): measured KD within 2.5-fold of WT hIGF-1R-Fc)

- Biacore Relative RUmax (IGF-1R): 1.0
Substance: SDWT: wild-type hIGF-1R-Fc

- C06 binding (IGF-1R-Fc): S-most
- C03 binding (IGF-1R-Fc): S-most
Substance: SD103: hIGF-1R-Fc mutant D461A V462T
- effect of mutation on M13-C06 and M14-C03 Fab binding (IGF-1R-Fc): no reactivity towards the M13-C06 and M14-C03 Fabs

Substance: SD201: hIGF-1R-Fc mutant D248A
- G11 binding (IGF-1R-Fc): S (Strong (S): binding to antibody was ablated by mutation)
- P1E2 binding (IGF-1R-Fc): W (Weak (W): measured KD between 2.5-10-fold higher than WT)
- αIR3 binding (IGF-1R-Fc): S (Strong (S): binding to antibody was ablated by mutation)

Substance: SD211: hIGF-1R-Fc mutant K327N
- G11 binding (IGF-1R-Fc): NE (No effect (NE): measured KD within 2.5-fold of WT hIGF-1R-Fc)
- P1E2 binding (IGF-1R-Fc): NE (No effect (NE): measured KD within 2.5-fold of WT hIGF-1R-Fc)
- αIR3 binding (IGF-1R-Fc): W (Weak (W): measured KD between 2.5-10-fold higher than WT)

Substance: SD107: hIGF-1R-Fc mutant T478R
- C06 binding (IGF-1R-Fc): NE (No effect (NE): measured KD within 2.5-fold of WT hIGF-1R-Fc)
- C03 binding (IGF-1R-Fc): W (Weak (W): measured KD between 2.5-10-fold higher than WT)

Substance: SD112: hIGF-1R-Fc mutant K568A
- C06 binding (IGF-1R-Fc): NE (No effect (NE): measured KD within 2.5-fold of WT hIGF-1R-Fc)
- C03 binding (IGF-1R-Fc): W (Weak (W): measured KD between 2.5-10-fold higher than WT)

Substance: SD108: hIGF-1R-Fc mutant H480E
- C06 binding (IGF-1R-Fc): S (Strong (S): binding to antibody was ablated by mutation)
- C03 binding (IGF-1R-Fc): S (Strong (S): binding to antibody was ablated by mutation)

Substance: SD202: hIGF-1R-Fc mutant D250S
- G11 binding (IGF-1R-Fc): S (Strong (S): binding to antibody was ablated by mutation)
- P1E2 binding (IGF-1R-Fc): NE (No effect (NE): measured KD within 2.5-fold of WT hIGF-1R-Fc)
- αIR3 binding (IGF-1R-Fc): NE (No effect (NE): measured KD within 2.5-fold of WT hIGF-1R-Fc)

Substance: SD209: hIGF-1R-Fc mutant K306E
- G11 binding (IGF-1R-Fc): NE (No effect (NE): measured KD within 2.5-fold of WT hIGF-1R-Fc)
- P1E2 binding (IGF-1R-Fc): NE (No effect (NE): measured KD within 2.5-fold of WT hIGF-1R-Fc)
- αIR3 binding (IGF-1R-Fc): NE (No effect (NE): measured KD within 2.5-fold of WT hIGF-1R-Fc)

Substance: SD105: hIGF-1R-Fc mutant T466L S467Y
- C06 binding (IGF-1R-Fc): W (Weak (W): measured KD between 2.5-10-fold higher than WT)
- C03 binding (IGF-1R-Fc): W (Weak (W): measured KD between 2.5-10-fold higher than WT)

From patent US20090291088A1, “THERAPEUTIC COMBINATIONS OF ANTI-IGF-1R ANTIBODIES AND OTHER COMPOUNDS” (Biogen Idec MA Inc., priority 2008, published 2009)
